For 20 molecules, LD50 and IC (2-fold clotting time) results are on record in patent US3978045A, “N^2 -dansyl-L-arginine derivatives, and the pharmaceutically acceptable acid addition salts thereof” (priority 1973, dated 1976).

Series [1] can be described thus: Acute toxicity (LD50) by oral administration in mice. To be noted: mouse, in vivo, per kilogram of body weight.
Series [2] concerns the target T1, thrombin (Bos taurus, UniProt P00735).
T1 construct: mature alpha-thrombin (light plus heavy chain) cut from prothrombin
The series can be described thus: Fibrinogen coagulation time (thrombin-induced clotting of fibrinogen). In kind it is biochemical. As to conditions: bovine fibrinogen, borate saline buffer pH 7.4, thrombin 0.1 ml of 5 units/ml, 25°C; control coagulation time 50-55 seconds; read-out: Concentration required to prolong the coagulation time by a factor of 2. As to the method: The antithrombotic activities of the N^2 -dansyl-L-arginine derivatives of this invention were compared with those of a known antithrombotic agent, (N^2 -(p-tolylsulfonyl)-L-arginine methyl ester). by determining the fibrinogen coagulation time. The measurement of the fibrinogen coagulation time was conducted as follows:
Immediately after mixing, the reaction mixture was transferred from the ice bath to a bath thermostated at 25°C. Coagulation times were taken as the period between the time of transference to the 25°C bath and the time of the first appearance of fibrin threads.
The term "concentration required to prolong the coagulation time by a factor of two" is the concentration of an active ingredient required to prolong the normal coagulation time 50-55 seconds to 100-110 seconds.

The structures appear in SMILES notation. A value given as a limit tells only on which side of the number the result lay.

Consider `CN(C)c1cccc2c(S(=O)(=O)N[C@@H](CCCNC(=N)N)C(=O)N3Cc4ccccc4C3)cccc12` [2-(N^2-dansyl-L-arginyl)isoindoline], for which, in series [1], the LD50 (as a rule, the dose expected to kill half of the subjects tested) came to 1360 mg/kg.

`CCC1CCN(C(=O)[C@H](CCCNC(=N)N)NS(=O)(=O)c2cccc3c(N(C)C)cccc23)CC1` [4-ethyl-1-(N^2-dansyl-L-arginyl)piperidine]: in series [1], the LD50 worked out at 1380 mg/kg.

`CC1CCN(C(=O)[C@H](CCCNC(=N)N)NS(=O)(=O)c2cccc3c(N(C)C)cccc23)CC1` [4-methyl-1-(N^2-dansyl-L-arginyl)piperidine] showed an LD50 in series [1] of 1310 mg/kg.

Consider `CCCCOC(=O)[C@H](CCCNC(=N)N)NS(=O)(=O)c1cccc2c(N(C)C)cccc12` [N^2 -dansyl-L-arginine n-butyl ester], for which, in series [1], the LD50 is > 6000 mg/kg.

Regarding `CC1CCCCN1C(=O)[C@H](CCCNC(=N)N)NS(=O)(=O)c1cccc2c(N(C)C)cccc12` (stereo partly drawn) [Sample 56, 2-methyl-1-(N^2-dansyl-L-arginyl)piperidine], in series [2], the IC (2-fold clotting time) was 1.3 µM.

On to `CC1CCCN(C(=O)[C@H](CCCNC(=N)N)NS(=O)(=O)c2cccc3c(N(C)C)cccc23)C1` (stereo partly drawn) [Sample 57, 3-methyl-1-(N^2-dansyl-L-arginyl)piperidine], for which the IC (2-fold clotting time) in series [2] was 6.5 µM.

Consider `CC1CCN(C(=O)[C@H](CCCNC(=N)N)NS(=O)(=O)c2cccc3c(N(C)C)cccc23)CC1` [Sample 58, 4-methyl-1-(N^2-dansyl-L-arginyl)piperidine diacetate], for which, in series [2], the IC (2-fold clotting time) was determined as 0.3 µM.

With `CCC1CCN(C(=O)[C@H](CCCNC(=N)N)NS(=O)(=O)c2cccc3c(N(C)C)cccc23)CC1` [Sample 59, 4-ethyl-1-(N^2-dansyl-L-arginyl) piperidine], the IC (2-fold clotting time) in series [2] worked out at 0.1 µM.

As for `CCCC1CCN(C(=O)[C@H](CCCNC(=N)N)NS(=O)(=O)c2cccc3c(N(C)C)cccc23)CC1` [Sample 60, 4-(n-propyl)-1-(N^2-dansyl-L-arginyl)piperidine], the IC (2-fold clotting time) in series [2] was 1 µM.

Consider `CC(C)C1CCN(C(=O)[C@H](CCCNC(=N)N)NS(=O)(=O)c2cccc3c(N(C)C)cccc23)CC1` [Sample 61, 4-(isopropyl)-1-(N^2-dansyl-L-arginyl)piperidine], for which the IC (2-fold clotting time) in series [2] came to 1 µM.

As for `COC(=O)C1CCN(C(=O)[C@H](CCCNC(=N)N)NS(=O)(=O)c2cccc3c(N(C)C)cccc23)CC1` [Sample 62, 4-methoxycarbonyl-1-(N^2-dansyl-L-arginyl)piperidine], in series [2], the IC (2-fold clotting time) turned out to be 2.8 µM.

Take `CN(C)c1cccc2c(S(=O)(=O)N[C@@H](CCCNC(=N)N)C(=O)N3CCC(C(N)=O)CC3)cccc12` [Sample 63]: the IC (2-fold clotting time) in series [2] turned out to be 100 µM.

Take `CN(C)c1cccc2c(S(=O)(=O)N[C@@H](CCCNC(=N)N)C(=O)N3CCCCCC3)cccc12` [Sample 64, N^2 -dansyl-N,N-hexamethylene-L-argininamide]: the IC (2-fold clotting time) in series [2] was determined as 0.9 µM.

With `CN(C)c1cccc2c(S(=O)(=O)N[C@@H](CCCNC(=N)N)C(=O)N3CCCCCCC3)cccc12` [Sample 65, N^2 -dansyl-N,N-heptamethylene-L-argininamide], in series [2], the IC (2-fold clotting time) came out at 1 µM.

Consider `CN(C)c1cccc2c(S(=O)(=O)N[C@@H](CCCNC(=N)N)C(=O)N3CCCCCCCC3)cccc12` [Sample 66, N^2 -dansyl-N,N-octamethylene-L-argininamide], for which the IC (2-fold clotting time) in series [2] was 2 µM.

Consider `CN(C)c1cccc2c(S(=O)(=O)N[C@@H](CCCNC(=N)N)C(=O)N3CCOCC3)cccc12` [Sample 67, 4-(N^2-dansyl-L-arginyl)morpholine], for which the IC (2-fold clotting time) in series [2] came to 1.5 µM.

On to `CC1CN(C(=O)[C@H](CCCNC(=N)N)NS(=O)(=O)c2cccc3c(N(C)C)cccc23)CC(C)O1` (some centres unmarked) [Sample 68], for which, in series [2], the IC (2-fold clotting time) stood at 20 µM.

Regarding `CN(C)c1cccc2c(S(=O)(=O)N[C@@H](CCCNC(=N)N)C(=O)N3Cc4ccccc4C3)cccc12` [Sample 70, 2-(N^2-dansyl-L-arginyl)isoindoline], the IC (2-fold clotting time) in series [2] amounted to 0.67 µM.

With `CN1CCN(C(=O)[C@H](CCCNC(=N)N)NS(=O)(=O)c2cccc3c(N(C)C)cccc23)CC1` [Sample 71, 4-methyl-1-(N^2-dansyl-L-arginyl)piperazine], the IC (2-fold clotting time) in series [2] turned out to be 2 µM.

Consider `CN(C)c1cccc2c(S(=O)(=O)N[C@@H](CCCNC(=N)N)C(=O)N3CCCc4ccccc43)cccc12` [Sample 72, N^2-dansyl-N-(1,2,3,4-tetrahydro-1-quinolyl)argininamide], for which the IC (2-fold clotting time) in series [2] was found to be 6.5 µM.
